Values joined by “and” are separate entries in the source; they are usually repeats but may differ in a detail not shown here. Equal values may be shown once. Read-outs that look alike come from different tables or passages of the source.
Experiments:
KRAS G13D = KRAS G13D (Homo sapiens, UniProt P01116+P62937, G13D); experiment: Disruption of BRAF RBD interaction with Ras (FRET / MOA assay, with Cyclophilin A); format: biochemical
In short: (§1)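 TR-FRET: nucleotide-loaded K-Ras mutant or WT with Cyclophilin A and BRAF RBD, compound 10-point 3-fold from 30 μM final, 3 h at 25° C, then anti-His Eu (10 nM) and anti-GST APC (50 nM) for 1.5 h. Decreased FRET ratio versus DMSO gives IC50.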

KRAS G12V = KRAS G12V (Homo sapiens, UniProt P01116+P62937, G12V); experiment: as above; format: biochemical
In short: as §1

KRAS G12C = KRAS G12C (Homo sapiens, UniProt P01116+P62937, G12C); experiment: as above; format: biochemical
In short: as §1

KRAS WT = KRAS WT (Homo sapiens, UniProt P01116+P62937); experiment: as above; format: biochemical
In short: as §1

KRAS G12D = KRAS G12D (Homo sapiens, UniProt P01116+P62937, G12D); experiment: as above; format: biochemical
In short: as §1

KRAS G13C = KRAS G13C (Homo sapiens, UniProt P01116+P62937, G13C); experiment: as above; format: biochemical
In short: as §1

NRAS G12C = NRAS G12C (Homo sapiens, UniProt P01111+P62937, G12C); experiment: as above; format: biochemical
KRAS G12S = KRAS G12S (Homo sapiens, UniProt P01116+P62937, G12S); experiment: as above; format: biochemical
In short: as §1

Capan-1 (K-Ras G12V) = experiment: CellTiter-Glo cell viability assay, 5-day treatment; format: cell-based; details: Homo sapiens, CAPAN-1, 120 h, 5-day treatment; read-out: Capan-1 Cell Viability assay data (K-Ras G12V, IC50)
In short: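 Seeded cells received test compound by direct dispensing. On day 5 the plates sat at room temperature approximately 30 minutes, then luminescence was measured. Data were normalized to DMSO and curve-fitted with four parameters.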

[1] = KRAS G13D, read-out: KRAS G13D FRET data IC50
[2] = KRAS G12V, read-out: KRAS G12V FRET data IC50
[3] = read-out: KRAS G12C FRET data, IC50
[4] = KRAS WT, read-out: KRAS WT FRET data IC50
[5] = read-out: KRAS G12D FRET data, IC50
[6] = read-out: KRAS G13C FRET data, IC50
[7] = NRAS G12C, read-out: NRAS G12C FRET data IC50
[8] = read-out: KRAS G12S FRET data, IC50
[9] = KRAS G13D FRET data IC50, KRAS G13D
[10] = KRAS G12V FRET data IC50, KRAS G12V
[11] = KRAS WT FRET data IC50, KRAS WT
[12] = NRAS G12C FRET data IC50, NRAS G12C

Chain of NRAS G12C (P01111 whole entry G12C): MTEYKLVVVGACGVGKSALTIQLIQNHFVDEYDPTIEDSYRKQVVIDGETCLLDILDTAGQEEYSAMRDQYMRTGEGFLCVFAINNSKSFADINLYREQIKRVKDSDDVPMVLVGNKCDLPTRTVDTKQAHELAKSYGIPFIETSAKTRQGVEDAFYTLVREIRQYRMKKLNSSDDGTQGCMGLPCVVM
Chain of NRAS G12C (P62937 whole entry): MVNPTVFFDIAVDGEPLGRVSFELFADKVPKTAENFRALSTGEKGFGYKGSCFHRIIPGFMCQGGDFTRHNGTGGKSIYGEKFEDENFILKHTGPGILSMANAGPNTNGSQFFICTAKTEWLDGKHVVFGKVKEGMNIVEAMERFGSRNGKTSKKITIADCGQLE
Chain of KRAS G13C (P01116 1-169 isoform P01116-2 G13C): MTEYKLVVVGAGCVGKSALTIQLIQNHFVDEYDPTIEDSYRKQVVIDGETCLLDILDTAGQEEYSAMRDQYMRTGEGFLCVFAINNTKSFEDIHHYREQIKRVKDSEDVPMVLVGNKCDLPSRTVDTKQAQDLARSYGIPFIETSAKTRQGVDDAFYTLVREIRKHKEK
Chain of KRAS G13C (P62937 whole entry): as the sequence (P62937 whole entry) above
Chain of KRAS G12C (P01116 1-169 isoform P01116-2 G12C): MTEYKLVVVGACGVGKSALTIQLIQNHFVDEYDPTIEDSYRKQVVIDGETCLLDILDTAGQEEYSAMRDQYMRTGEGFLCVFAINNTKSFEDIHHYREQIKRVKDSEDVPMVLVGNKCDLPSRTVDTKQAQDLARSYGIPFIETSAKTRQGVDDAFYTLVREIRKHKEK
Chain of KRAS G12C (P62937 whole entry): as the sequence (P62937 whole entry) above
Chain of KRAS G13D (P01116 1-169 isoform P01116-2 G13D limits assumed): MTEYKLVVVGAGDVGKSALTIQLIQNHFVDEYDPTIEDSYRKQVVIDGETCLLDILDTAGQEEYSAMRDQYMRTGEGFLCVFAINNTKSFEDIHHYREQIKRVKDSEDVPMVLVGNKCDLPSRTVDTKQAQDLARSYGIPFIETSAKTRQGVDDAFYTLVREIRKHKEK
Chain of KRAS G13D (P62937 whole entry): as the sequence (P62937 whole entry) above
Chain of KRAS G12D (P01116 1-169 isoform P01116-2 G12D limits assumed): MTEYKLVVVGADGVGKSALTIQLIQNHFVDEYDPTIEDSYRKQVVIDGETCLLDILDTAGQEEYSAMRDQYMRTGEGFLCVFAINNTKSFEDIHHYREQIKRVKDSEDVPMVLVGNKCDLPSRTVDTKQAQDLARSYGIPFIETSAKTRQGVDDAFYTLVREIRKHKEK
Chain of KRAS G12D (P62937 whole entry): as the sequence (P62937 whole entry) above
Chain of KRAS WT (P01116 1-169 isoform P01116-2 limits assumed): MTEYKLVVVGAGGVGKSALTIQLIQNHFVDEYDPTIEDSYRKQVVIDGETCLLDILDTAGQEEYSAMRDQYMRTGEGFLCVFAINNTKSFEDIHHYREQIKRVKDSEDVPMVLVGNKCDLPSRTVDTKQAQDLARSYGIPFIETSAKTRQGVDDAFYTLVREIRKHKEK
Chain of KRAS WT (P62937 whole entry): as the sequence (P62937 whole entry) above
Chain of KRAS G12S (P01116 1-169 isoform P01116-2 G12S limits assumed): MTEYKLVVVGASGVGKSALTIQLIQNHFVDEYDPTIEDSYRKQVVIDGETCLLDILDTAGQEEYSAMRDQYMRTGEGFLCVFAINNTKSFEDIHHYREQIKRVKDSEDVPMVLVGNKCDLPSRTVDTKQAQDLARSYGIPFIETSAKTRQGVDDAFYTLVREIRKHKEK
Chain of KRAS G12S (P62937 whole entry): as the sequence (P62937 whole entry) above
Chain of KRAS G12V (P01116 1-169 isoform P01116-2 G12V limits assumed): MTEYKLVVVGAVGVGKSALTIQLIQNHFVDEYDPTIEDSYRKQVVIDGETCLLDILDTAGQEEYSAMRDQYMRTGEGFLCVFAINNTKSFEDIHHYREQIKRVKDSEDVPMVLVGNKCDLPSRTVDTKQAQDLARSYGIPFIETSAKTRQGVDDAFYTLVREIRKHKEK
Chain of KRAS G12V (P62937 whole entry): as the sequence (P62937 whole entry) above

For `CCn1c(-c2cccnc2[C@H](C)OC)c2c3cc(ccc31)-c1cc(O)cc(c1)C[C@H](NS(=O)(=O)CCN(C)C)C(=O)N1CCC[C@H](N1)C(=O)OCC(C)(C)C2` (racemic) [Example A190], the IC50 (KRAS G13D; [1]) was > 10 µM, the IC50 (KRAS G12V; [2]) was > 10 µM and the IC50 (KRAS G12C; [3]) was > 10 µM. The IC50 (KRAS WT; [4]) was > 10 µM, the IC50 (KRAS G12D; [5]) was > 10 µM and the IC50 (KRAS G13C; [6]) was > 10 µM. The IC50 (NRAS G12C; [7]) was > 10 µM, the IC50 (KRAS G12S; [8]) was > 10 µM and the IC50 (Capan-1 (K-Ras G12V)) was > 10 µM.

With `CCn1c(-c2cccnc2[C@H](C)OC)c2c3cc(ccc31)-c1cc(O)cc(c1)C[C@H](NS(=O)(=O)c1cnc[nH]1)C(=O)N1CCC[C@H](N1)C(=O)OCC(C)(C)C2` (racemic) [Example A192] the IC50 (KRAS G13D; [1]) was > 10 µM, the IC50 (KRAS G12V; [2]) was > 10 µM and the IC50 (KRAS G12C; [3]) was > 10 µM. For the same molecule, the IC50 (KRAS WT; [4]) was > 10 µM, the IC50 (KRAS G12D; [5]) was > 10 µM and the IC50 (KRAS G13C; [6]) was > 10 µM. For the same molecule, the IC50 (NRAS G12C; [7]) was > 10 µM, the IC50 (KRAS G12S; [8]) was > 10 µM and the IC50 (Capan-1 (K-Ras G12V)) was > 10 µM.

With `CCn1c(-c2cccnc2[C@H](C)OC)c2c3cc(ccc31)-c1cc(O)cc(c1)C[C@H](NC(=O)[C@H](C(C)C)N(C)C(=O)[C@H]1CCNC1)C(=O)N1CCC[C@H](N1)C(=O)OCC(C)(C)C2` [Example A4] the IC50 (KRAS G13D; [9]) was 0.1 to 1 µM and 0.01 to 0.1 µM, the IC50 (KRAS G12V; [10]) was 0.1 to 1 µM and > 10 µM and the IC50 (KRAS G12C; KRAS G12C FRET data, IC50) was 0.1 to 1 µM and 0.01 to 0.1 µM. For the same molecule, the IC50 (KRAS WT; [11]) was 1 to 10 µM and 0.01 to 0.1 µM, the IC50 (KRAS G12D; KRAS G12D FRET data, IC50) was 1 to 10 µM and 0.01 to 0.1 µM and the IC50 (KRAS G13C; KRAS G13C FRET data, IC50) was 0.1 to 1 µM and 0.01 to 0.1 µM. For the same molecule, the IC50 (NRAS G12C; [12]) was 1 to 10 µM and 0.01 to 0.1 µM, the IC50 (KRAS G12S; KRAS G12S FRET data, IC50) was 1 to 10 µM and 0.01 to 0.1 µM and the IC50 (Capan-1 (K-Ras G12V)) was > 10 µM.

Molecule `CCn1c(-c2cnccc2COC)c2c3cc(ccc31)-c1cc(O)cc(c1)C[C@H](NC(=O)[C@H]([C@@H](C)OC)N(C)C(C)=O)C(=O)N1CCC[C@H](N1)C(=O)OCC(C)(C)C2` [Example A76] has an IC50 (KRAS G13D; [1]) of 0.1 to 1 µM, an IC50 (KRAS G12V; [2]) of 0.1 to 1 µM and an IC50 (KRAS G12C; [3]) of 0.1 to 1 µM. For the same molecule, the IC50 (KRAS WT; [4]) was 0.1 to 1 µM, the IC50 (KRAS G12D; [5]) was 1 to 10 µM and the IC50 (KRAS G13C; [6]) was 0.1 to 1 µM. The IC50 (NRAS G12C; [7]) was 0.1 to 1 µM, the IC50 (KRAS G12S; [8]) was 0.1 to 1 µM and the IC50 (Capan-1 (K-Ras G12V)) was 1 to 10 µM.

For `CCn1c(-c2cnccc2COC)c2c3cc(ccc31)-c1cc(O)cc(c1)C[C@H](NC(=O)[C@H](C(C)C)N(C)C(=O)[C@@H]1CN(C(C)=O)C[C@@H]1C(F)(F)F)C(=O)N1CCC[C@H](N1)C(=O)OCC(C)(C)C2` [Example A80], the IC50 (KRAS G13D; [1]) was 0.1 to 1 µM, the IC50 (KRAS G12V; [2]) was 1 to 10 µM and the IC50 (KRAS G12C; [3]) was 0.1 to 1 µM. For the same molecule, the IC50 (KRAS WT; [4]) was 0.1 to 1 µM, the IC50 (KRAS G12D; [5]) was 0.1 to 1 µM and the IC50 (KRAS G13C; [6]) was 0.1 to 1 µM. The IC50 (NRAS G12C; [7]) was 0.1 to 1 µM, the IC50 (KRAS G12S; [8]) was 0.1 to 1 µM and the IC50 (Capan-1 (K-Ras G12V)) was 1 to 10 µM.

`CCn1c(-c2cnccc2COC)c2c3cc(ccc31)-c1cc(O)cc(c1)C[C@H](NC(=O)[C@H](C(C)C)N(C)C(=O)[C@H](C)O)C(=O)N1CCC[C@H](N1)C(=O)OCC(C)(C)C2` [Example A93] was tested, and the IC50 (KRAS G13D; [9]) was 0.1 to 1 µM, the IC50 (KRAS G12V; [10]) was 0.1 to 1 µM and the IC50 (KRAS G12C; KRAS G12C FRET data, IC50) was 0.1 to 1 µM. For the same molecule, the IC50 (KRAS WT; [11]) was 0.1 to 1 µM, the IC50 (KRAS G12D; KRAS G12D FRET data, IC50) was 1 to 10 µM and the IC50 (KRAS G13C; KRAS G13C FRET data, IC50) was 0.1 to 1 µM. It also gave an IC50 (NRAS G12C; [12]) of 0.1 to 1 µM, an IC50 (KRAS G12S; KRAS G12S FRET data, IC50) of 0.1 to 1 µM and an IC50 (Capan-1 (K-Ras G12V)) of 1 to 10 µM.

`CCn1c(-c2cccnc2[C@H](C)OC)c2c3cc(ccc31)-c1cccc(c1)C[C@H](NC(=O)[C@H](C(C)C)N(C)C(=O)[C@H]1CCN(C(=O)CN(C)C)C1)C(=O)N1CCC[C@H](N1)C(=O)OCC(C)(C)C2` [Example A96] was tested, and the IC50 (KRAS G13D; [1]) was 1 to 10 µM, the IC50 (KRAS G12V; [2]) was 1 to 10 µM and the IC50 (KRAS G12C; [3]) was 0.1 to 1 µM. The IC50 (KRAS WT; [4]) was 1 to 10 µM, the IC50 (KRAS G12D; [5]) was 1 to 10 µM and the IC50 (KRAS G13C; [6]) was 0.1 to 1 µM. The IC50 (NRAS G12C; [7]) was 0.1 to 1 µM, the IC50 (KRAS G12S; [8]) was 1 to 10 µM and the IC50 (Capan-1 (K-Ras G12V)) was 1 to 10 µM.

Work on `CCn1c(-c2cccnc2[C@H](C)OC)c2c3cc(ccc31)-c1cccc(c1)C[C@H](NC(=O)[C@H](C(C)C)N(C)C(=O)[C@H]1CCN(C(=O)CNC)C1)C(=O)N1CCC[C@H](N1)C(=O)OCC(C)(C)C2` [Example A98] yielded an IC50 (KRAS G13D; [9]) of 1 to 10 µM, an IC50 (KRAS G12V; [10]) of 1 to 10 µM and an IC50 (KRAS G12C; KRAS G12C FRET data, IC50) of 0.1 to 1 µM. The IC50 (KRAS WT; [11]) was 1 to 10 µM, the IC50 (KRAS G12D; KRAS G12D FRET data, IC50) was 1 to 10 µM and the IC50 (KRAS G13C; KRAS G13C FRET data, IC50) was 0.1 to 1 µM. The IC50 (NRAS G12C; [12]) was 0.1 to 1 µM, the IC50 (KRAS G12S; KRAS G12S FRET data, IC50) was 1 to 10 µM and the IC50 (Capan-1 (K-Ras G12V)) was > 10 µM.

`CCn1c(-c2cccnc2[C@H](C)OC)c2c3cc(ccc31)-c1cccc(c1)C[C@H](NC(=O)[C@H](C(C)C)N(C)C(=O)[C@H]1CCN(C(=O)CN)C1)C(=O)N1CCC[C@H](N1)C(=O)OCC(C)(C)C2` [Example A105] was tested, and the IC50 (KRAS G13D; [1]) was 1 to 10 µM, the IC50 (KRAS G12V; [2]) was 1 to 10 µM and the IC50 (KRAS G12C; [3]) was 0.1 to 1 µM. It also gave an IC50 (KRAS WT; [4]) of 1 to 10 µM, an IC50 (KRAS G12D; [5]) of 1 to 10 µM and an IC50 (KRAS G13C; [6]) of 0.1 to 1 µM. The IC50 (NRAS G12C; [7]) was 1 to 10 µM, the IC50 (KRAS G12S; [8]) was 1 to 10 µM and the IC50 (Capan-1 (K-Ras G12V)) was > 10 µM.

From patent US20230233569A1 (Revolution Medicines, Inc., priority 2020, published 2023)
